#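 48-hour exposure; five concentrations; linearly interpolated endpoints. GI50 = concentration required for 50% inhibition of growth. At the TGI there is no net growth.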
# Experiments:
# Test in all cases: NCI tumour cell line growth inhibition, 48 h
# SF-268 CNS = system: SF-268 CNS
# SF-539 CNS = system: SF-539 CNS
# U251 CNS = system: U251 CNS
# CAKI-1 renal = system: CAKI-1 renal
# SK-OV-3 ovarian = system: SK-OV-3 ovarian
# BT-549 breast = system: BT-549 breast
# TK-10 renal = system: TK-10 renal
# HT29 colon = system: HT29 colon
# NCI-H226 lung = system: NCI-H226 lung
# CCRF-CEM leukemia = system: CCRF-CEM leukemia
# MOLT-4 leukemia = system: MOLT-4 leukemia
# MCF7 breast = system: MCF7 breast
# COLO 205 colon = system: COLO 205 colon
# KM12 colon = system: KM12 colon
# K-562 leukemia = system: K-562 leukemia
# DU-145 prostate = system: DU-145 prostate
# UACC-257 melanoma = system: UACC-257 melanoma
# HOP-62 NSCLC = system: HOP-62 NSCLC
# OVCAR-5 ovarian = system: OVCAR-5 ovarian
# RPMI-8226 leukemia = system: RPMI-8226 leukemia
# SK-MEL-28 melanoma = system: SK-MEL-28 melanoma
# OVCAR-8 ovarian = system: OVCAR-8 ovarian
# NCI-H522 lung = system: NCI-H522 lung
# NCI/ADR-RES ovarian = system: NCI/ADR-RES ovarian
# EKVX NSCLC = system: EKVX NSCLC
# OVCAR-4 ovarian = system: OVCAR-4 ovarian
# SNB-75 CNS = system: SNB-75 CNS
# A549 NSCLC = system: A549 NSCLC
# HCT-116 colon = system: HCT-116 colon
# SN12C renal = system: SN12C renal
# LOX IMVI melanoma = system: LOX IMVI melanoma
# NCI-H460 lung = system: NCI-H460 lung
# A498 renal = system: A498 renal
# MDA-MB-435 = system: MDA-MB-435
# HCT-15 colon = system: HCT-15 colon
# NCI-H23 lung = system: NCI-H23 lung
# SNB-19 CNS = system: SNB-19 CNS
# PC-3 prostate = system: PC-3 prostate
# MDA-MB-231 breast = system: MDA-MB-231 breast
# UO-31 renal = system: UO-31 renal
# 786-0 renal = system: 786-0 renal
# IGROV1 ovarian = system: IGROV1 ovarian
# HOP-92 NSCLC = system: HOP-92 NSCLC
# SF-295 CNS = system: SF-295 CNS
# T-47D breast = system: T-47D breast
# HCC-2998 colon = system: HCC-2998 colon
# HS 578T breast = system: HS 578T breast
# MALME-3M melanoma = system: MALME-3M melanoma
# SW-620 colon = system: SW-620 colon
# M14 melanoma = system: M14 melanoma
# HL-60(TB) leukemia = system: HL-60(TB) leukemia
# SK-MEL-5 melanoma = system: SK-MEL-5 melanoma
compound,measurement,setting,value
C#C[C@]1(O)CC[C@H]2[C@@H]3CC=C4c5sc(Nc6ccc(OC)nc6)nc5CC[C@]4(C)[C@H]3CC[C@@]21C,GI50,SF-268 CNS,2010 nM
same,TGI,SF-268 CNS,17400 nM
same,GI50,SF-539 CNS,366 nM
same,TGI,SF-539 CNS,2150 nM
same,GI50,U251 CNS,654 nM
same,TGI,U251 CNS,2810 nM
same,GI50,CAKI-1 renal,1280 nM
same,TGI,CAKI-1 renal,3760 nM
same,GI50,SK-OV-3 ovarian,1260 nM
same,TGI,SK-OV-3 ovarian,6160 nM
same,GI50,BT-549 breast,944 nM
same,TGI,BT-549 breast,2890 nM
same,GI50,TK-10 renal,2280 nM
same,TGI,TK-10 renal,4810 nM
same,GI50,HT29 colon,1310 nM
same,TGI,HT29 colon,3240 nM
same,GI50,NCI-H226 lung,2020 nM
same,TGI,NCI-H226 lung,13400 nM
same,GI50,CCRF-CEM leukemia,805 nM
same,TGI,CCRF-CEM leukemia,6240 nM
same,GI50,MOLT-4 leukemia,390 nM
same,TGI,MOLT-4 leukemia,2410 nM
same,GI50,MCF7 breast,789 nM
same,TGI,MCF7 breast,2540 nM
same,GI50,COLO 205 colon,1780 nM
same,TGI,COLO 205 colon,3370 nM
same,GI50,KM12 colon,2100 nM
same,TGI,KM12 colon,12200 nM
same,GI50,K-562 leukemia,907 nM
same,TGI,K-562 leukemia,12800 nM
same,GI50,DU-145 prostate,2010 nM
same,TGI,DU-145 prostate,10000 nM
same,GI50,UACC-257 melanoma,1550 nM
same,TGI,UACC-257 melanoma,3180 nM
same,GI50,HOP-62 NSCLC,1660 nM
same,TGI,HOP-62 NSCLC,8800 nM
same,GI50,OVCAR-5 ovarian,2490 nM
same,TGI,OVCAR-5 ovarian,15100 nM
same,GI50,RPMI-8226 leukemia,222 nM
same,TGI,RPMI-8226 leukemia,1190 nM
same,GI50,SK-MEL-28 melanoma,1500 nM
same,TGI,SK-MEL-28 melanoma,3720 nM
same,GI50,OVCAR-8 ovarian,1800 nM
same,TGI,OVCAR-8 ovarian,5460 nM
same,GI50,NCI-H522 lung,1430 nM
same,TGI,NCI-H522 lung,3020 nM
same,GI50,NCI/ADR-RES ovarian,2360 nM
same,TGI,NCI/ADR-RES ovarian,> 100000 nM
same,GI50,EKVX NSCLC,1600 nM
same,TGI,EKVX NSCLC,21300 nM
same,GI50,OVCAR-4 ovarian,3510 nM
same,TGI,OVCAR-4 ovarian,> 100000 nM
same,GI50,SNB-75 CNS,370 nM
same,TGI,SNB-75 CNS,3900 nM
same,GI50,A549 NSCLC,2200 nM
same,TGI,A549 NSCLC,18000 nM
same,GI50,HCT-116 colon,1130 nM
same,TGI,HCT-116 colon,2490 nM
same,GI50,SN12C renal,2220 nM
same,TGI,SN12C renal,7610 nM
same,GI50,LOX IMVI melanoma,1150 nM
same,TGI,LOX IMVI melanoma,2790 nM
same,GI50,NCI-H460 lung,1920 nM
same,TGI,NCI-H460 lung,5890 nM
same,GI50,A498 renal,769 nM
same,TGI,A498 renal,5880 nM
same,GI50,MDA-MB-435,1840 nM
same,TGI,MDA-MB-435,4900 nM
same,GI50,HCT-15 colon,1070 nM
same,TGI,HCT-15 colon,8280 nM
same,GI50,NCI-H23 lung,1650 nM
same,TGI,NCI-H23 lung,4470 nM
same,GI50,SNB-19 CNS,1360 nM
same,TGI,SNB-19 CNS,68800 nM
same,GI50,PC-3 prostate,739 nM
same,TGI,PC-3 prostate,4920 nM
same,GI50,MDA-MB-231 breast,1710 nM
same,TGI,MDA-MB-231 breast,9340 nM
same,GI50,UO-31 renal,830 nM
same,TGI,UO-31 renal,2130 nM
same,GI50,786-0 renal,413 nM
same,TGI,786-0 renal,1970 nM
same,GI50,IGROV1 ovarian,2040 nM
same,TGI,IGROV1 ovarian,7400 nM
same,GI50,HOP-92 NSCLC,1030 nM
same,TGI,HOP-92 NSCLC,2950 nM
same,GI50,SF-295 CNS,302 nM
same,TGI,SF-295 CNS,1230 nM
same,GI50,T-47D breast,1470 nM
same,TGI,T-47D breast,3780 nM
same,GI50,HCC-2998 colon,1700 nM
same,TGI,HCC-2998 colon,3810 nM
same,GI50,HS 578T breast,231 nM
same,TGI,HS 578T breast,1610 nM
same,GI50,MALME-3M melanoma,1540 nM
same,TGI,MALME-3M melanoma,3210 nM
same,GI50,SW-620 colon,1490 nM
same,TGI,SW-620 colon,3400 nM
same,GI50,M14 melanoma,1470 nM
same,TGI,M14 melanoma,3470 nM
same,GI50,HL-60(TB) leukemia,493 nM
same,TGI,HL-60(TB) leukemia,3710 nM
same,GI50,SK-MEL-5 melanoma,1930 nM
same,TGI,SK-MEL-5 melanoma,4540 nM

# From PubChem BioAssay (NCI)
